Biological target: T1, AAK1 (Homo sapiens, UniProt Q2M2I8)
T1 construct: HA; expressed in transfected cells; host or cells: HEK293F
Assay: P81 filter plate assay
Assay type: biochemical
Conditions: full-length human AAK1, Mu2 substrate
Description: Compounds were serially diluted into a Labcyte LDV plate (Labcyte, cat#LP-0200) using a Mutiprobe (PerkinElmer) and Biomek FX (Beckman Coulter) so that the highest compound concentration was at 96 μM. Compounds were then pinged (75 nL per well) into a Greiner 384-well reaction plate (Greiner, #781076) using an ECHO 550 Liquid Handler (Labcyte). A total of 12 μl reaction buffer (IMAP buffer containing Tween and DTT, from Molecular Devices) was then added to each well of columns 1 and 13 for the negative controls and 12 μl of 2×AAK1 (0.2 nM full-length human protein, NCBI accession no. NP_055726.2) was added to the remaining wells. Enzyme was then pre-incubated with compound for 10 minutes at RT. Reactions were initiated upon Minitrak (PerkinElmer) addition of 12 μl substrate mix containing 2×Mu2 (0.2 μM, full length human protein), 2× cold ATP (2 μM), and 1.3 μCi of hot ^33P-ATP. Reactions proceeded for one hour at RT. Meanwhile, Millipore 384-well P81 filter plates (Millipore, catalog #MZPHNOW10) were placed on a plate washer (Zoom ZW, from Titertek) and pre-wet with 50 μl 1% phosphoric acid. Kinase reactions were then stopped upon addition of 24 μl of 2% phosphoric acid to each well and the Minitrak was then used to transfer 40 μl from each well into the pre-wet Millipore 384-well P81 filter plates. Reaction mixtures were incubated for 10 minutes at RT in the P81 plates, followed by washing five times with 100 μl/well of 1% phosphoric acid using the Zoom filter washer. The bottom of each filter plate was sealed followed by addition of 20 μl Microscint 40 to each well, sealing the top of the plates with Flashplate cover, and then waiting one hour until reading on the TopCount (PerkinElmer).

T1 sequence (Q2M2I8 1-863 isoform Q2M2I8-2): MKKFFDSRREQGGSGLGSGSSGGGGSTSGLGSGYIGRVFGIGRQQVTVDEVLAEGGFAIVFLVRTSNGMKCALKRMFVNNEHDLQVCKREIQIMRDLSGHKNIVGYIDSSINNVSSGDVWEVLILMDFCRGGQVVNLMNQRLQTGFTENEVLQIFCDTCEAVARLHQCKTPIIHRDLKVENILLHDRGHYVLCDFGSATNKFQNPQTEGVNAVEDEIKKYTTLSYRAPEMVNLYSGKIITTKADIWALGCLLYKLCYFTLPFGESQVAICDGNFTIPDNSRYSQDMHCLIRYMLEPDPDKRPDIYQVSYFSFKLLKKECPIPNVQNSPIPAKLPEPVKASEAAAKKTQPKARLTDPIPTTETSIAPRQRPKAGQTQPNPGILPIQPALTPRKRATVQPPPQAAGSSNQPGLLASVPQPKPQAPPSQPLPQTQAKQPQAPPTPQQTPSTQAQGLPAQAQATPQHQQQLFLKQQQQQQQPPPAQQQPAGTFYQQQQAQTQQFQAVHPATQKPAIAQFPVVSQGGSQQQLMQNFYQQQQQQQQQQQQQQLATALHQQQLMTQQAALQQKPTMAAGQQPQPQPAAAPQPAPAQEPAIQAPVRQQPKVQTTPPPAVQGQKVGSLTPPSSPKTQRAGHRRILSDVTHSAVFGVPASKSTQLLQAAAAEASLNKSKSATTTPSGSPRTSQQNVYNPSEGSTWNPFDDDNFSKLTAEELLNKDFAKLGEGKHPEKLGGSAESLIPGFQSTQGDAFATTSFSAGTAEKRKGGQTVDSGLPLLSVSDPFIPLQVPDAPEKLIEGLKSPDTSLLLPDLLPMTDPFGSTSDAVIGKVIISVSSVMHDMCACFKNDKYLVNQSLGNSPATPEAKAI

SMILES	IC50
COc1ncccc1-c1cnc2ccc(N3CC[C@H](O)C3)nn12 [(S)-1-(3-(2-methoxypyridin-3-yl)imidazo[1,2-b]pyridazin-6-yl)pyrrolidin-3-ol]	≤ 1000 nM
CC(C)C[C@H](N)C(=O)N1CCN(c2ccc3ncc(Cl)n3n2)CC1 [(S)-2-amino-1-(4-(3-chloroimidazo[1,2-b]pyridazin-6-yl)piperazin-1-yl)-4-methylpentan-1-one]	≤ 100 nM
CC(C)C[C@H](N)C(=O)N1CCN(c2ccc3nccn3n2)CC1 [(S)-2-amino-1-(4-(imidazo[1,2-b]pyridazin-6-yl)piperazin-1-yl)-4-methylpentan-1-one]	≤ 1000 nM
Cc1cnc2ccc(N3CCN(C(=O)[C@@H](N)C(C)C)CC3)nn12 [(S)-2-amino-3-methyl-1-(4-(3-methylimidazo[1,2-b]pyridazin-6-yl)piperazin-1-yl)butan-1-one]	≤ 10 nM
Cc1cnc2ccc(N3CCN(C(=O)[C@@H](N)CC(C)C)CC3)nn12 [(S)-2-amino-4-methyl-1-(4-(3-methylimidazo[1,2-b]pyridazin-6-yl)piperazin-1-yl)pentan-1-one]	≤ 100 nM
CN(C(=O)CC1CC1)[C@H]1CCN(c2ccc3ncc(-c4cccnc4O)n3n2)C1 [(S)-2-cyclopropyl-N-(1-(3-(2-hydroxypyridin-3-yl)imidazo[1,2-b]pyridazin-6-yl)pyrrolidin-3-yl)-N-methylacetamide]	≤ 10 nM
COCCOC(=O)N(C)[C@H]1CCN(c2ccc3ncc(-c4cccnc4OC)n3n2)C1 [(S)-2-methoxyethyl (1-(3-(2-methoxypyridin-3-yl)imidazo[1,2-b]pyridazin-6-yl)pyrrolidin-3-yl)(methyl)carbamate]	≤ 100 nM
CN(C(=O)CC(F)(F)F)[C@H]1CCN(c2ccc3ncc(-c4cccnc4O)n3n2)C1 [(S)-3,3,3-trifluoro-N-(1-(3-(2-hydroxypyridin-3-yl)imidazo[1,2-b]pyridazin-6-yl)pyrrolidin-3-yl)-N-methylpropanamide]	≤ 10 nM
COCCO[C@H]1CCN(c2ccc3ncc(-c4cc(C)cnc4OC)n3n2)C1 [(S)-3-(2-methoxy-5-methylpyridin-3-yl)-6-(3-(2-methoxyethoxy)pyrrolidin-1-yl)imidazo[1,2-b]pyridazine]	≤ 1000 nM
COCCO[C@H]1CCN(c2ccc3ncc(-c4ccc(C)nc4OC)n3n2)C1 [(S)-3-(2-methoxy-6-methylpyridin-3-yl)-6-(3-(2-methoxyethoxy)pyrrolidin-1-yl)imidazo[1,2-b]pyridazine]	≤ 100 nM
COCCO[C@H]1CCN(c2ccc3ncc(-c4cccnc4OC)n3n2)C1 [(S)-6-(3-(2-methoxyethoxy)pyrrolidin-1-yl)-3-(2-methoxypyridin-3-yl)imidazo[1,2-b]pyridazine]	≤ 1000 nM
COCC(=O)N(C)[C@H]1CCN(c2ccc3ncc(-c4cccnc4O)n3n2)C1 [(S)-N-(1-(3-(2-hydroxypyridin-3-yl)imidazo[1,2-b]pyridazin-6-yl)pyrrolidin-3-yl)-2-methoxy-N-methylacetamide]	≤ 1000 nM
CC(C)CC(=O)N(C)[C@H]1CCN(c2ccc3ncc(-c4cccnc4O)n3n2)C1 [(S)-N-(1-(3-(2-hydroxypyridin-3-yl)imidazo[1,2-b]pyridazin-6-yl)pyrrolidin-3-yl)-N,3-dimethylbutanamide]	≤ 100 nM
CCCC(=O)N(C)[C@H]1CCN(c2ccc3ncc(-c4cccnc4O)n3n2)C1 [(S)-N-(1-(3-(2-hydroxypyridin-3-yl)imidazo[1,2-b]pyridazin-6-yl)pyrrolidin-3-yl)-N-methylbutyramide]	≤ 100 nM
CCCC(=O)N(C)[C@H]1CCN(c2ccc3ncc(-c4cccnc4OC)n3n2)C1 [(S)-N-(1-(3-(2-methoxypyridin-3-yl)imidazo[1,2-b]pyridazin-6-yl)pyrrolidin-3-yl)-N-methylbutyramide]	≤ 100 nM
CCCC(=O)N(C)[C@H]1CCN(c2ccc3ncc(-c4cccnc4)n3n2)C1 [(S)-N-methyl-N-(1-(3-(pyridin-3-yl)imidazo[1,2-b]pyridazin-6-yl)pyrrolidin-3-yl)butyramide]	≤ 1000 nM
CN(C(=O)N1CCCC1)[C@H]1CCN(c2ccc3ncc(-c4ccncc4)n3n2)C1 [(S)-N-methyl-N-(1-(3-(pyridin-4-yl)imidazo[1,2-b]pyridazin-6-yl)pyrrolidin-3-yl)pyrrolidine-1-carboxamide]	≤ 100 nM
Cc1ccc(-c2cnc3ccc(N4CC[C@H](N(C)C(=O)OC(C)C)C4)nn23)c(=O)n1C [(S)-isopropyl (1-(3-(1,6-dimethyl-2-oxo-1,2-dihydropyridin-3-yl)imidazo[1,2-b]pyridazin-6-yl)pyrrolidin-3-yl)(methyl)carbamate]	≤ 100 nM
CC(C)OC(=O)N(C)[C@H]1CCN(c2ccc3ncc(-c4cccnc4OC(F)F)n3n2)C1 [(S)-isopropyl (1-(3-(2-(difluoromethoxy)pyridin-3-yl)imidazo[1,2-b]pyridazin-6-yl)pyrrolidin-3-yl)(methyl)carbamate]	≤ 10 nM
CC(C)OC(=O)N(C)[C@H]1CCN(c2ccc3ncc(-c4ccncc4)n3n2)C1 [(S)-isopropyl methyl(1-(3-(pyridin-4-yl)imidazo[1,2-b]pyridazin-6-yl)pyrrolidin-3-yl)carbamate]	≤ 100 nM
CN(C(=O)OC(C)(C)C)[C@H]1CCN(c2ccc3ncc(-c4cccnc4)n3n2)C1 [(S)-tert-butyl methyl(1-(3-(pyridin-3-yl)imidazo[1,2-b]pyridazin-6-yl)pyrrolidin-3-yl)carbamate]	≤ 10 nM
CN(C(=O)C1CCCC1)[C@H]1CCN(c2ccc3ncc(-c4cccnc4O)n3n2)C1 [Cyclopentanecarboxylic acid {(S)-1-[3-(2-hydroxy-pyridin-3-yl)-imidazo[1,2-b]pyridazin-6-yl]-pyrrolidin-3-yl}-methyl-amide]	≤ 100 nM

Second part, the compound after the results:

IC50	SMILES
≤ 10 nM	CC(C)(C)CCN1C(=O)CC[C@H]1CNc1ccc2ncc(-c3ccncc3)n2n1 [(S)-1-(3,3-dimethylbutyl)-5-(((3-(pyridin-4-yl)imidazo[1,2-b]pyridazin-6-yl)amino)methyl)pyrrolidin-2-one]
≤ 10 nM	CC(C)C[C@H](N)C(=O)N1CCN(c2ccc3ncc(Br)n3n2)CC1 [(S)-2-amino-1-(4-(3-bromoimidazo[1,2-b]pyridazin-6-yl)piperazin-1-yl)-4-methylpentan-1-one]
≤ 1000 nM	CCCC(=O)N(C)[C@H]1CCN(c2ccc3ncc(Br)n3n2)C1 [(S)-N-(1-(3-bromoimidazo[1,2-b]pyridazin-6-yl)pyrrolidin-3-yl)-N-methylbutyramide]
≤ 100 nM	CN(C(=O)N1CCCC1)[C@H]1CCN(c2ccc3ncc(Br)n3n2)C1 [(S)-N-(1-(3-bromoimidazo[1,2-b]pyridazin-6-yl)pyrrolidin-3-yl)-N-methylpyrrolidine-1-carboxamide]
≤ 100 nM	CCCC(=O)N(C)[C@H]1CCN(c2ccc3ncc(-c4ccncc4)n3n2)C1 [(S)-N-methyl-N-(1-(3-(pyridin-4-yl)imidazo[1,2-b]pyridazin-6-yl)pyrrolidin-3-yl)butyramide]
≤ 10 nM	N#Cc1cnc2ccc(NC[C@@H]3CCCN3C(=O)OC3CCCC3)nn12 [(S)-cyclopentyl 2-(((3-cyanoimidazo[1,2-b]pyridazin-6-yl)amino)methyl)pyrrolidine-1-carboxylate]
≤ 10 nM	O=C(OCC1CC1)N1CCC[C@H]1CNc1ccc2ncc(-c3ccncc3)n2n1 [(S)-cyclopropylmethyl 2-(((3-(pyridin-4-yl)imidazo[1,2-b]pyridazin-6-yl)amino)methyl)pyrrolidine-1-carboxylate]
≤ 10 nM	O=C(OCC1CC1)N1CCC[C@H]1CNc1ccc2ncc(Br)n2n1 [(S)-cyclopropylmethyl 2-(((3-bromoimidazo[1,2-b]pyridazin-6-yl)amino)methyl)pyrrolidine-1-carboxylate]
≤ 100 nM	CC(C)OC(=O)N1CCC[C@H]1COc1ccc2ncc(-c3cccnc3O)n2n1 [(S)-isopropyl 2-(((3-(2-hydroxypyridin-3-yl)imidazo[1,2-b]pyridazin-6-yl)oxy)methyl)pyrrolidine-1-carboxylate]
≤ 100 nM	COc1ncccc1-c1cnc2ccc(OC[C@@H]3CCCN3C(=O)OC(C)C)nn12 [(S)-isopropyl 2-(((3-(2-methoxypyridin-3-yl)imidazo[1,2-b]pyridazin-6-yl)oxy)methyl)pyrrolidine-1-carboxylate]
≤ 10 nM	CCCOC(=O)N1CCC[C@H]1CNc1ccc2ncc(Br)n2n1 [(S)-propyl 2-(((3-bromoimidazo[1,2-b]pyridazin-6-yl)amino)methyl)pyrrolidine-1-carboxylate]
≤ 100 nM	COC(=O)c1cnn(-c2ccc3ncc(Br)n3n2)c1 [Methyl 1-(3-bromoimidazo[1,2-b]pyridazin-6-yl)-1H-pyrazole-4-carboxylate]
≤ 100 nM	COc1cccc(-c2cnc3ccc(NCCOC4CCCC4)nn23)c1 [N-(2-(cyclopentyloxy)ethyl)-3-(3-methoxyphenyl)imidazo[1,2-b]pyridazin-6-amine]
≤ 100 nM	Cc1csc(-c2cnc3ccc(NCCOC4CCCC4)nn23)c1 [N-(2-(cyclopentyloxy)ethyl)-3-(4-methylthiophen-2-yl)imidazo[1,2-b]pyridazin-6-amine]

— patent US8969565B2, “Imidazo[1,2-b]pyridazine-based compounds, compositions comprising them, and methods of their use” (Lexicon Pharmaceuticals, Inc., priority 2012, dated 2015)
